Laboratory results from publication PMC8187380, “Lipophilic nanocrystal prodrug-release defines the extended pharmacokinetic profiles of a year-long cabotegravir” (Nature Communications, 2021).
Like-named read-outs stand apart in the source and are kept apart here.

Tests used:
[1] = Plasma/blood PK after single IM injection in male Balb/cJ mice (UNMC); type: in vivo
Method: In mice, inguinal, axillary, branchial, and cervical lymph nodes were collected and pooled, while in rats only cervical lymph nodes were collected. Following injection, blood samples were collected at 4 h, days 1, 2, 4, 7, 14, 28, 42, and 56 and then monthly for 12 months into EDTA tubes (blood sample time points were evenly distributed between the four groups). Fifty μl of blood was immediately transferred into 950 μl methanol (containing 0.1% FA and 2.5 mM AF), vortexed, and stored at −80 °C until drug analysis. The remaining portion of the blood samples were centrifuged at 2000 × g for 5 min for plasma collection, which was stored at −80 °C until drug analysis. […] Plasma samples were collected up to day 672 and CAB and M2CAB quantification were performed by LC-MS/MS.
For blood samples, 50 µl blood collected in 950 µl of methanol was vortexed, centrifuged at 16,000 × g for 10 min at 4 °C, and 50 µl supernatant was aspirated, mixed with 50 µl IS [20 ng/ml d3-dolutegravir (d3-DTG) and 40 ng/ml stearoylated darunavir (SDRV)] in 70% methanol (containing 0.1% FA and 2.5 mM AF). d3-DTG was used as the IS (final concentration = 10 ng/ml) for the quantification of CAB, and SDRV (final concentration = 20 ng/ml) was used as the IS for quantification of M2CAB. Ten µl of the sample was analyzed by LC-MS/MS for CAB and M2CAB. […]

[2] = Metabolic stability in blood; type: in vitro ADME, mouse, rat, rabbit, monkey, dog, human; conditions: for Stability in blood: 24 h
Method: […] The samples were then centrifuged at 16,000 × g for 10 min after which 10 µl of the supernatant was mixed with 80% methanol (containing 0.1% FA and 2.5 mM AF) containing an internal standard (IS) and analyzed by LC-MS/MS. For the time zero start time, a 100 µl of ice-cold blood was spiked with M2CAB and immediately 0.9 ml of methanol (containing 0.1% FA and 2.5 mM AF) was added. Heat-inactivated plasma was incubated at the same conditions and used as negative controls to differentiate chemical versus metabolic stability.

[3] = tested on: human monocyte-derived macrophages (MDMs); experiment: Cellular uptake, retention and release in macrophages; type: cell-based; conditions: for Percent taken up by MDMs: 8 h, 10 µM
Method: Human peripheral blood monocytes were obtained by leukapheresis from HIV-1,2 and hepatitis B seronegative donors and purified by centrifugal elutriation. Monocytes were cultured for the first seven days in macrophage colony stimulating factor enriched media (MCSF, 1000 U/ml) to facilitate cell vitality and differentiation into macrophages[15],[29]. […] Cells were maintained in clear flat-bottom 12-well plates at 37 °C in a 5% CO2 incubator at a density of 1.0 × 10^6 cells per well. Half-culture media was replaced with fresh media every other day. After differentiation, MDM were utilized for CAB prodrug or drug nanoparticle uptake, retention and release. […] At days 1, 5, 10, 15, 20, and 30, adherent MDM were washed twice with PBS, scraped into PBS, and counted using an Invitrogen Countess Automated Cell Counter (Carlsbad, CA). Cell suspension was then centrifuged at 900 × g for 8 min at 4 °C. […] To quantify release kinetics, drug concentrations were measured in samples collected from the culture media from the same retention experiment using preloaded MDMs, at the same time when cells were harvested to quantify intracellular drug retention.

HIV-1 = conditions: no reference given; cited from earlier work
[4] = cited from earlier work
[5] = parameters: method as in PMID 30387005; conditions: in water; cited from earlier work
[6] = macaques; cited from earlier work
SHIV = tested on: SHIV; parameters: method as in PMID 24594934; conditions: NHP, cited from earlier work
[7] = parameters: method as in PMID 26340566, PMID 26049948; conditions: cited from earlier work
CYP450 = tested on: CYP450; parameters: method as in PMID 26340566, PMID 26049948; conditions: cited from earlier work
[8] = Chemical (pH) stability of unformulated M2CAB; type: physicochemical; conditions: 37 °C, 24 h, 1 μM
Method: Next, we assessed the chemical stability of the solubilized form of M2CAB at a range of pHs [pH 1.0 (0.1 M HCl), pH 7.4 (PBS), pH 8.3 (heat-inactivated plasma) and pH 11.0 (0.1 M NaOH)]. […] At 24 h, percent M2CAB recovered was 87, 52, 5, and 2 at pH 1.0, pH 7.4, pH 8.3 and pH 11.0, respectively (Supplementary Fig. 3). Reductions in M2CAB prodrug concentrations paralleled native CAB formation, indicating the hydrolysis of the prodrug M2CAB into parent CAB.
Supplementary Figure 3. M2CAB pH stability. Chemical stability profile of M2CAB at pH 1.0 (0.1 M HCl), pH 7.4 (PBS), pH 8.3 (heat inactivated plasma) and pH 11.0 (0.1 M NaOH) at 1 μM drug concentration. (a) Percent M2CAB remaining vs. time profile for M2CAB; (b) Percent CAB formation vs. time profile from M2CAB. Data are expressed as mean (N = 2 replicates per time point). Each experiment was repeated independently two times with equivalent results.
(1 picture or pasted object on this page, not shown here)

[9] = Metabolic stability in liver S9 fractions; type: in vitro ADME, mouse, rat, rabbit, monkey, dog, human; conditions: six species, 2 h incubation, 1 µM
Method: The metabolic stabilities of CAB and M2CAB were determined using mouse, rat, rabbit, dog, monkey, and human liver S9 fractions (XenoTech, LLC, Lenexa, KS, USA). Briefly, CAB and M2CAB were incubated at 1 µM in a 100 µl mixture containing S9 fractions at 1 mg/ml protein concentration, NADPH (1 mM), saccharolactone (5 mM), uridine 5′-diphospho-glucuronic acid (UDPGA) (1 mM), and 3′-phosphoadenosin-5′-phosphosulphate (PAPS) ([…]) in PBS (100 mM, pH 7.4) at 37 °C. For each time point (0, 30, and 120 min), reactions were quenched by adding 0.9 ml of methanol (containing 0.1% FA and 2.5 mM AF), followed by centrifugation at 15,000 × g for 10 min. Ten microliters of the supernatants were then analyzed by LC-MS/MS. Heat-inactivated S9 fractions were incubated at the same conditions and used as negative controls. Hydroxycoumarin (7-HC) metabolites including 7-HC-glucuronide and 7-HC-sulfate, and the testosterone metabolite 6β-hydroxytestosterone were used as positive controls for phase I and phase II metabolism.

[10] = Metabolic stability in rat tissue homogenates; type: in vitro ADME
Method: For metabolic stability in tissues, freshly collected rat liver, spleen, muscle, and lymph node tissues were homogenized in five-volumes of PBS (w/v). […] At different time points (0, 30 min, 2 h, and 6 h), 0.9 ml of methanol (containing 0.1% FA and 2.5 mM AF) was added to each sample and vortexed for 3 min. Samples were centrifuged at 16,000 × g for 10 min, 10 µl supernatant was mixed with 80% methanol (containing 0.1% FA and 2.5 mM AF) containing IS and analyzed by LC-MS/MS.

[11] = Stability in macrophage cell culture media and MDM-cell lysate; type: in vitro ADME, human; conditions: M2CAB solution

C[C@H]1CO[C@@H]2Cn3cc(C(=O)NCc4ccc(F)cc4F)c(=O)c(O)c3C(=O)N12 [CAB, cabotegravir]
Fold CAB blood concentration lower than plasma concentration ([1]; all samples (mice and rats)): ~2 fold | Stability in blood ([2]; all species, 1 µM, 37 °C): stable | Percent of CAB recovered ([2]; blood, all six species, by 24 h): more than 90% | Percent taken up by MDMs [3]: ≤ 0.1% | Intracellular CAB levels in MDMs ([3]; after 8 h drug loading at 10 µM): below or at the limit of detection within hours | Protein-adjusted 90% inhibitory concentration (PA-IC90) (HIV-1): 0.166 µg/mL | Oral bioavailability [4]: near-complete | Plasma half-life [4]: 30 to 40 h | Eliminated unchanged in feces ([4]; humans): up to 50% | Glucuronide metabolites in urine ([4]; humans): 27% | Terminal phase half-life ([4]; humans): 504 to 1200 h | Unidentified metabolites in feces ([4]; humans): 10% | tmax (oral absorption) ([4]; oral): 1.5 to 2 h | Aqueous solubility [5]: 15 µg/mL | Terminal phase half-life [6]: 72 to 288 h | Protection against intrarectal SHIV challenge (SHIV; plasma CAB concentrations >3×PA-IC90): 100% | Protection against intrarectal SHIV challenge (SHIV; plasma CAB concentrations ≥1×PA-IC90): 97% | Membrane permeability [7]: high | Affinity for CYP450 (CYP450): low

CCCCCCCCCCCCCCCCCC(=O)Oc1c2n(cc(C(=O)NCc3ccc(F)cc3F)c1=O)C[C@H]1OC[C@H](C)N1C2=O [M2CAB]
Blood concentration of the prodrug as percent of CAB ([1]; mice and rats, after NM2CAB): < 1% | Percent M2CAB recovered ([8]; pH 1.0 (0.1 M HCl)): 87% | Percent M2CAB recovered ([8]; pH 7.4 (PBS)): 52% | Percent M2CAB recovered ([8]; pH 8.3 (heat-inactivated plasma)): 5% | Percent M2CAB recovered ([8]; pH 11.0 (0.1 M NaOH)): 2% | Stability in blood ([2]; all species, 1 µM, 37 °C): unstable | Percent of M2CAB hydrolyzed ([2]; blood of dog, monkey, mouse, rat, rabbit, human, after 6 h, 1 µM, 37 °C): Greater than 80% | Time within which M2CAB was hydrolyzed into the parent CAB ([2]; blood, all species): ≤ 6 h | Stability in heat-inactivated plasma ([2]; control, 1 µM, 37 °C): unstable | Percent of M2CAB lost [9]: < 25% | Stability in heat-inactivated liver homogenate ([10]; control): unstable | Percent of M2CAB remaining/recovered ([10]; rat tissue homogenates, after 6 h incubation, 1 µM): 50–80% | Percent taken up by MDMs [3]: up to 30% | Percent released into the media (recovered as CAB) ([3]; MDMs, within days): < 95% | Percent of intracellular drug retained by MDMs ([3]; one month after 8 h loading at 10 µM): 4% | Time to complete hydrolysis into CAB in cell lysates [11]: ≤ 7 days | Time to complete hydrolysis into CAB in media [11]: ≤ 3 days
